In patent US20260001928A1 (CORTERIA PHARMACEUTICALS, priority 2022, published 2026):
*1 amine or outer side, *2 acyl side, *3 side chain or, on linkers, in order; H or OH if unused. Where a SMILES comes first, the peptide text is derived from it. Side-chain parts run from the residue outwards. [ ]: non-standard residue; d: D form. The star is where a group is joined. C20 diacid = O=C(O)CCCCCCCCCCCCCCCCCCC(=O)*; C18 diacid = O=C(O)CCCCCCCCCCCCCCCCC(=O)*; γGlu = O=C(O)[C@H](CCC(=O)[*:2])N[*:1]; Api = NC1(C(=O)O)CCNCC1; Pentanoyl = CCCCC(=O)*; AEEA = NCCOCCOCC(=O)O; Aib = CC(C)(N)C(=O)O

Tests used:
[1] = molecular target: T1, human CRF2a receptor (Homo sapiens, UniProt Q13324); test: Activity at human CRF2a receptor, cAMP functional assay in TeloHEAC cells; assay type: cell-based; conditions: TeloHEAC cells stably expressing human CRF2a receptor, relative to urocortin 2 (100 nM = 100%)
T1 construct: expressed in transfected cells; host or cells: TeloHEAC cells
T1 sequence (Q13324 1-411): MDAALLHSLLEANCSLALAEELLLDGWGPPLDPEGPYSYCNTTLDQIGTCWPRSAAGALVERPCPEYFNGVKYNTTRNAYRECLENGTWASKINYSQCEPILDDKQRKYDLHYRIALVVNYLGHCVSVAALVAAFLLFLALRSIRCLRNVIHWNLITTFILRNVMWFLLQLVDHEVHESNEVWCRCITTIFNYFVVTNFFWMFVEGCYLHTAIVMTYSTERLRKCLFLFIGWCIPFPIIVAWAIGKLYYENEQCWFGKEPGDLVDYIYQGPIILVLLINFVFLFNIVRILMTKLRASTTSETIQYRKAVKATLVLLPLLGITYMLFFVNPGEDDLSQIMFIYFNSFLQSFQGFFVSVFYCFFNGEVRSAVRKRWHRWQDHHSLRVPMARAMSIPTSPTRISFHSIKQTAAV
Procedure, shortened: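 TeloHEAC cells stably expressing human CRF2a (10000 cells/well, suspended in HBSS/20 mM HEPES with 2 mM IBMX) were exposed to compounds for 30 min at 37 °C. cAMP was read as the 665/620 nm fluorescence ratio after 1 h at room temperature. EC50 was derived relative to 100 nM urocortin 2, set as 100%.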

[2] = molecular target: T2, CFR1R receptor (Homo sapiens, UniProt P34998); test: Activity at anti-target CFR1R receptor, cAMP assay in CRF1R-overexpression CHO-K1 cells; assay type: cell-based; conditions: 100% = Sauvagine at 100 nM; for EC50: cAMP
T2 construct: host or cells: CHO-K1 (clone 2)
T2 sequence (P34998 24-415): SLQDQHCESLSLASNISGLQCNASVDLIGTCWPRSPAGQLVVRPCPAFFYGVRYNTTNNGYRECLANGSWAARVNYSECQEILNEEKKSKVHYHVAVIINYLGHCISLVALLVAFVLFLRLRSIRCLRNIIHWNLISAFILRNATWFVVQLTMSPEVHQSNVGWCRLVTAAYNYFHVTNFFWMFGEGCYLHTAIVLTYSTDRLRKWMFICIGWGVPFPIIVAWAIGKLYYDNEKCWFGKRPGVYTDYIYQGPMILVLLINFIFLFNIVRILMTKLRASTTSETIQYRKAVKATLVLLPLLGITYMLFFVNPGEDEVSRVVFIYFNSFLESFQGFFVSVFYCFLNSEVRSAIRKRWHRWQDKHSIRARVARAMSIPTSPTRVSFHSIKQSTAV
Procedure, shortened: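 Uses frozen stocks of CHO-K1 clone 2 cells overexpressing human CRF1R, plated at 4000 cells/well final, with cAMP measured by the same protocol as the TeloHAEC line. Full-activation control: 100 nM Sauvagine.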

| Structure (SMILES) | EC50 [1] | Emax (% I) [2] | EC50 [2] |
| --- | --- | --- | --- |
| CCCCC(=O)N[C@H](C(=O)N[C@@H](CC(C)C)C(=O)N[C@@H](CO)C(=O)N[C@@H](CC(C)C)C(=O)N[C@@H](CC(=O)O)C(=O)N[C@@H](C(=O)N1CCC[C@H]1C(=O)N[C@H](C(=O)N[C@@H](CCCCN)C(=O)N[C@@H](CC(C)C)C(=O)N[C@@H](CCCCNC(=O)COCCOCCNC(=O)COCCOCCNC(=O)CC[C@H](NC(=O)CCCCCCCCCCCCCCCCC(=O)O)C(=O)O)C(=O)N[C@@H](CCCCN)C(=O)N[C@H](C(=O)N[C@@H](CC(C)C)C(=O)N[C@@H](CC(C)C)C(=O)N[C@@H](CCC(=O)O)C(=O)N[C@@H](CCC(N)=O)C(=O)N[C@@H](CCC(=O)O)C(=O)N[C@@H](CCCCN)C(=O)N[C@@H](CCC(N)=O)C(=O)N[C@@H](CCCCN)C(=O)N[C@@H](CCCCN)C(=O)N[C@@H](CCC(N)=O)C(=O)N[C@@H](CCCNC(=N)N)C(=O)N[C@@H](CCC(=O)O)C(=O)N[C@@H](CCC(N)=O)C(=O)N[C@@H](C)C(=O)N[C@@H](CCC(=O)O)C(=O)N[C@H](C(=O)N[C@@H](CC(N)=O)C(=O)NC(C)(C)C(=O)N[C@@H](CCC(N)=O)C(=O)N[C@H](C(=O)N[C@@H](CC(C)C)C(=O)N[C@@H](C)C(=O)N[C@@H](CCC(N)=O)C(=O)N[C@H](C(N)=O)C(C)C)[C@@H](C)CC)[C@@H](C)O)[C@@H](C)CC)[C@@H](C)CC)C(C)C)C(C)C [compound 201] (Pentanoyl-VLSLD[dV]PIKLK([AEEA-AEEA-γGlu-C18 diacid])KILLEQEKQKKQREQAETN[Aib]QILAQV-NH2) | 1.37 nM | 5 % I | > 250 nM |
| CC[C@H](C)[C@H](NC(C)=O)C(=O)N[C@H](C(=O)N[C@@H](CC(C)C)C(=O)N[C@@H](CO)C(=O)N[C@@H](CC(C)C)C(=O)N[C@@H](CC(=O)O)C(=O)N[C@@H](C(=O)N1CCC[C@H]1C(=O)N[C@H](C(=O)N[C@@H](CCCCN)C(=O)N[C@@H](CC(C)C)C(=O)N[C@@H](CCCCNC(=O)CC[C@H](NC(=O)CCCCCCCCCCCCCCCCCCC(=O)O)C(=O)O)C(=O)N[C@@H](CCCCN)C(=O)N[C@H](C(=O)N[C@@H](CC(C)C)C(=O)N[C@@H](CC(C)C)C(=O)N[C@@H](CCC(=O)O)C(=O)N[C@@H](CCC(N)=O)C(=O)N[C@@H](CCC(=O)O)C(=O)N[C@@H](CCCCN)C(=O)N[C@@H](CCC(N)=O)C(=O)N[C@@H](CCCCN)C(=O)N[C@@H](CCCCN)C(=O)N[C@@H](CCC(N)=O)C(=O)N[C@@H](CCCNC(=N)N)C(=O)N[C@@H](CCC(=O)O)C(=O)N[C@@H](CCC(N)=O)C(=O)N[C@@H](C)C(=O)N[C@@H](CCC(=O)O)C(=O)N[C@H](C(=O)N[C@@H](CC(N)=O)C(=O)NC1(C(=O)N[C@@H](CCC(N)=O)C(=O)N[C@H](C(=O)N[C@@H](CC(C)C)C(=O)N[C@@H](C)C(=O)N[C@@H](CCC(N)=O)C(=O)N[C@H](C(N)=O)C(C)C)[C@@H](C)CC)CCNCC1)[C@@H](C)O)[C@@H](C)CC)[C@@H](C)CC)C(C)C)C(C)C [compound 207] (Ac-IVLSLD[dV]PIKLK([γGlu-C20 diacid])KILLEQEKQKKQREQAETN[Api]QILAQV-NH2) | 0.12 nM | 65 % I |  |

The remaining compounds from weak to strong by EC50 [1], led by results:

| EC50 [1] | Emax (% I) [2] | EC50 [2] | Structure (SMILES) |
| --- | --- | --- | --- |
| 1.84 nM | −2 % I | > 250 nM | CC[C@H](C)[C@H](NC(C)=O)C(=O)N[C@H](C(=O)N[C@@H](CC(C)C)C(=O)N[C@@H](CO)C(=O)N[C@@H](CC(C)C)C(=O)N[C@@H](CC(=O)O)C(=O)N[C@@H](C(=O)N1CCC[C@H]1C(=O)N[C@H](C(=O)N[C@@H](CCCCN)C(=O)N[C@@H](CC(C)C)C(=O)N[C@@H](CCCCNC(=O)COCCOCCNC(=O)COCCOCCNC(=O)CC[C@H](NC(=O)CC[C@H](NC(=O)CCCCCCCCCCCCCCCCC(=O)O)C(=O)O)C(=O)O)C(=O)N[C@@H](CCCCN)C(=O)N[C@H](C(=O)N[C@@H](CC(C)C)C(=O)N[C@@H](CC(C)C)C(=O)N[C@@H](CCC(=O)O)C(=O)N[C@@H](CCC(N)=O)C(=O)N[C@@H](CCC(=O)O)C(=O)N[C@@H](CCCCN)C(=O)N[C@@H](CCC(N)=O)C(=O)N[C@@H](CCCCN)C(=O)N[C@@H](CCCCN)C(=O)N[C@@H](CCC(N)=O)C(=O)N[C@@H](CCCNC(=N)N)C(=O)N[C@@H](CCC(=O)O)C(=O)N[C@@H](CCC(N)=O)C(=O)N[C@@H](C)C(=O)N[C@@H](CCC(=O)O)C(=O)N[C@H](C(=O)N[C@@H](CC(N)=O)C(=O)NC(C)(C)C(=O)N[C@@H](CCC(N)=O)C(=O)N[C@H](C(=O)N[C@@H](CC(C)C)C(=O)N[C@@H](C)C(=O)N[C@@H](CCC(N)=O)C(=O)N[C@H](C(N)=O)C(C)C)[C@@H](C)CC)[C@@H](C)O)[C@@H](C)CC)[C@@H](C)CC)C(C)C)C(C)C [compound 204] (Ac-IVLSLD[dV]PIKLK([AEEA-AEEA-γGlu-γGlu-C18 diacid])KILLEQEKQKKQREQAETN[Aib]QILAQV-NH2) |
| 1.73 nM | 8 % I | > 250 nM | CCCCC(=O)N[C@H](C(=O)N[C@@H](CC(C)C)C(=O)N[C@@H](CO)C(=O)N[C@@H](CC(C)C)C(=O)N[C@@H](CC(=O)O)C(=O)N[C@@H](C(=O)N1CCC[C@H]1C(=O)N[C@H](C(=O)N[C@@H](CCCCN)C(=O)N[C@@H](CC(C)C)C(=O)N[C@@H](CCCCNC(=O)COCCOCCNC(=O)COCCOCCNC(=O)CC[C@H](NC(=O)CCCCCCCCCCCCCCCCC(=O)O)C(=O)O)C(=O)N[C@@H](CCCCN)C(=O)N[C@H](C(=O)N[C@@H](CC(C)C)C(=O)N[C@@H](CC(C)C)C(=O)N[C@@H](CCC(=O)O)C(=O)N[C@@H](CCC(N)=O)C(=O)N[C@@H](CCC(=O)O)C(=O)N[C@@H](CCCCN)C(=O)N[C@@H](CCC(N)=O)C(=O)N[C@@H](CCCCN)C(=O)NC(C)(C)C(=O)N[C@@H](CCC(N)=O)C(=O)N[C@@H](CCCNC(=N)N)C(=O)N[C@@H](CCC(=O)O)C(=O)N[C@@H](CCC(N)=O)C(=O)N[C@@H](C)C(=O)N[C@@H](CCC(=O)O)C(=O)N[C@H](C(=O)N[C@@H](CC(N)=O)C(=O)NC(C)(C)C(=O)N[C@@H](CCC(N)=O)C(=O)N[C@H](C(=O)N[C@@H](CC(C)C)C(=O)N[C@@H](C)C(=O)N[C@@H](CCC(N)=O)C(=O)N[C@H](C(N)=O)C(C)C)[C@@H](C)CC)[C@@H](C)O)[C@@H](C)CC)[C@@H](C)CC)C(C)C)C(C)C [compound 202] (Pentanoyl-VLSLD[dV]PIKLK([AEEA-AEEA-γGlu-C18 diacid])KILLEQEKQK[Aib]QREQAETN[Aib]QILAQV-NH2) |
| 1.43 nM | 1 % I | > 250 nM | CC[C@H](C)[C@H](NC(C)=O)C(=O)N[C@H](C(=O)N[C@@H](CC(C)C)C(=O)N[C@@H](CO)C(=O)N[C@@H](CC(C)C)C(=O)N[C@@H](CC(=O)O)C(=O)N[C@@H](C(=O)N1CCC[C@H]1C(=O)N[C@H](C(=O)N[C@@H](CCCCN)C(=O)N[C@@H](CC(C)C)C(=O)N[C@@H](CCCCNC(=O)COCCOCCNC(=O)CC[C@H](NC(=O)CC[C@H](NC(=O)CCCCCCCCCCCCCCCCC(=O)O)C(=O)O)C(=O)O)C(=O)N[C@@H](CCCCN)C(=O)N[C@H](C(=O)N[C@@H](CC(C)C)C(=O)N[C@@H](CC(C)C)C(=O)N[C@@H](CCC(=O)O)C(=O)N[C@@H](CCC(N)=O)C(=O)N[C@@H](CCC(=O)O)C(=O)N[C@@H](CCCCN)C(=O)N[C@@H](CCC(N)=O)C(=O)N[C@@H](CCCCN)C(=O)N[C@@H](CCCCN)C(=O)N[C@@H](CCC(N)=O)C(=O)N[C@@H](CCCNC(=N)N)C(=O)N[C@@H](CCC(=O)O)C(=O)N[C@@H](CCC(N)=O)C(=O)N[C@@H](C)C(=O)N[C@@H](CCC(=O)O)C(=O)N[C@H](C(=O)N[C@@H](CC(N)=O)C(=O)NC(C)(C)C(=O)N[C@@H](CCC(N)=O)C(=O)N[C@H](C(=O)N[C@@H](CC(C)C)C(=O)N[C@@H](C)C(=O)N[C@@H](CCC(N)=O)C(=O)N[C@H](C(N)=O)C(C)C)[C@@H](C)CC)[C@@H](C)O)[C@@H](C)CC)[C@@H](C)CC)C(C)C)C(C)C [compound 205] (Ac-IVLSLD[dV]PIKLK([AEEA-γGlu-γGlu-C18 diacid])KILLEQEKQKKQREQAETN[Aib]QILAQV-NH2) |
